Measured values reported in the NIST ThermoML archive (doi:10.1021/acs.jced.7b01125).
± gives the expanded uncertainty stated by the source.

Experiment: xn = mol fraction of the nth substance listed
Conditions: Gas, Buoyancy - hydrostatic balance with magnetic suspension - one sinker

[HH] [hydrogen] + C
Conditions | mass density [kg/m3]
275.01 K, 5005 kPa, x2 = 0.9 | 35.103 ± 0.047
275.01 K, 6005 kPa, x2 = 0.9 | 42.849 ± 0.049
275.01 K, 6005 kPa, x2 = 0.9499 | 45.691 ± 0.052
275.01 K, 7005 kPa, x2 = 0.9 | 50.825 ± 0.051
275.01 K, 7005 kPa, x2 = 0.9499 | 54.384 ± 0.054
275.01 K, 8002 kPa, x2 = 0.9 | 58.973 ± 0.052
275.01 K, 8003 kPa, x2 = 0.9499 | 63.333 ± 0.055
275.01 K, 9002 kPa, x2 = 0.9 | 67.322 ± 0.054
275.01 K, 9003 kPa, x2 = 0.9499 | 72.54 ± 0.057
275.01 K, 10005 kPa, x2 = 0.9 | 75.811 ± 0.055
275.01 K, 10006 kPa, x2 = 0.9499 | 81.955 ± 0.059
275.01 K, 11001 kPa, x2 = 0.4997 | 43.883 ± 0.061
275.01 K, 11005 kPa, x2 = 0.9499 | 91.455 ± 0.06
275.01 K, 11006 kPa, x2 = 0.9 | 84.369 ± 0.057
275.01 K, 12007 kPa, x2 = 0.9 | 92.928 ± 0.058
275.01 K, 12009 kPa, x2 = 0.9499 | 101.013 ± 0.061
275.01 K, 13009 kPa, x2 = 0.9 | 101.458 ± 0.059
275.01 K, 13011 kPa, x2 = 0.9499 | 110.507 ± 0.062
275.01 K, 14003 kPa, x2 = 0.4997 | 55.493 ± 0.077
275.01 K, 14006 kPa, x2 = 0.9 | 109.837 ± 0.06
275.01 K, 14006 kPa, x2 = 0.9499 | 119.787 ± 0.062
275.01 K, 15000 kPa, x2 = 0.4997 | 59.259 ± 0.082
275.01 K, 15008 kPa, x2 = 0.9 | 118.086 ± 0.06
275.01 K, 15018 kPa, x2 = 0.9499 | 128.986 ± 0.062
275.01 K, 16003 kPa, x2 = 0.9 | 126.067 ± 0.061
275.01 K, 16005 kPa, x2 = 0.4997 | 63.009 ± 0.086
275.01 K, 16016 kPa, x2 = 0.9499 | 137.753 ± 0.062
275.01 K, 17006 kPa, x2 = 0.4997 | 66.693 ± 0.091
275.01 K, 17009 kPa, x2 = 0.9 | 133.878 ± 0.061
275.01 K, 17010 kPa, x2 = 0.9499 | 146.15 ± 0.062
275.01 K, 18001 kPa, x2 = 0.4997 | 70.294 ± 0.096
275.01 K, 18006 kPa, x2 = 0.9 | 141.344 ± 0.06
275.01 K, 19020 kPa, x2 = 0.9499 | 161.966 ± 0.061
275.01 K, 19297 kPa, x2 = 0.4997 | 74.901 ± 0.1
275.01 K, 19909 kPa, x2 = 0.9499 | 168.44 ± 0.061
275.02 K, 18019 kPa, x2 = 0.9499 | 154.292 ± 0.062
275.02 K, 19012 kPa, x2 = 0.9 | 148.567 ± 0.061
275.02 K, 19897 kPa, x2 = 0.9 | 154.661 ± 0.071
299.95 K, 3999 kPa, x2 = 0.9 | 24.698 ± 0.042
299.95 K, 16003 kPa, x2 = 0.9 | 107.531 ± 0.053
299.96 K, 999 kPa, x2 = 0.9 | 5.941 ± 0.039
299.96 K, 999 kPa, x2 = 0.9499 | 6.241 ± 0.04
299.96 K, 1999 kPa, x2 = 0.9 | 12.047 ± 0.04
299.96 K, 2000 kPa, x2 = 0.9499 | 12.675 ± 0.041
299.96 K, 2983 kPa, x2 = 0.9499 | 19.18 ± 0.042
299.96 K, 2990 kPa, x2 = 0.9 | 18.241 ± 0.041
299.96 K, 3999 kPa, x2 = 0.9499 | 26.096 ± 0.043
299.96 K, 4999 kPa, x2 = 0.9 | 31.243 ± 0.043
299.96 K, 4999 kPa, x2 = 0.9499 | 33.078 ± 0.045
299.96 K, 5999 kPa, x2 = 0.9 | 37.914 ± 0.044
299.96 K, 6000 kPa, x2 = 0.9499 | 40.236 ± 0.046
299.96 K, 6999 kPa, x2 = 0.9 | 44.708 ± 0.045
299.96 K, 7000 kPa, x2 = 0.9499 | 47.554 ± 0.048
299.96 K, 8001 kPa, x2 = 0.9 | 51.609 ± 0.046
299.96 K, 8001 kPa, x2 = 0.9499 | 55.012 ± 0.048
299.96 K, 9002 kPa, x2 = 0.9 | 58.59 ± 0.047
299.96 K, 9003 kPa, x2 = 0.9499 | 62.59 ± 0.049
299.96 K, 10003 kPa, x2 = 0.9 | 65.636 ± 0.049
299.96 K, 10004 kPa, x2 = 0.9499 | 70.258 ± 0.051
299.96 K, 11001 kPa, x2 = 0.9499 | 77.955 ± 0.052
299.96 K, 11003 kPa, x2 = 0.9 | 72.706 ± 0.049
299.96 K, 12002 kPa, x2 = 0.9 | 79.763 ± 0.05
299.96 K, 12003 kPa, x2 = 0.9499 | 85.693 ± 0.053
299.96 K, 13002 kPa, x2 = 0.9 | 86.81 ± 0.051
299.96 K, 13003 kPa, x2 = 0.9499 | 93.405 ± 0.053
299.96 K, 14003 kPa, x2 = 0.9 | 93.813 ± 0.052
299.96 K, 14006 kPa, x2 = 0.9499 | 101.077 ± 0.054
299.96 K, 15004 kPa, x2 = 0.9499 | 108.622 ± 0.055
299.96 K, 15005 kPa, x2 = 0.9 | 100.739 ± 0.053
299.96 K, 16005 kPa, x2 = 0.9499 | 116.045 ± 0.054
299.96 K, 17007 kPa, x2 = 0.9 | 114.233 ± 0.053
299.96 K, 17007 kPa, x2 = 0.9499 | 123.312 ± 0.055
299.96 K, 18003 kPa, x2 = 0.9 | 120.727 ± 0.054
299.96 K, 18007 kPa, x2 = 0.9499 | 130.371 ± 0.055
299.96 K, 18999 kPa, x2 = 0.9499 | 137.175 ± 0.058
299.96 K, 19011 kPa, x2 = 0.9 | 127.134 ± 0.055
299.96 K, 19426 kPa, x2 = 0.9499 | 140.03 ± 0.044
299.96 K, 19795 kPa, x2 = 0.9 | 131.987 ± 0.064
324.96 K, 999 kPa, x2 = 0.9 | 5.467 ± 0.037
324.96 K, 1002 kPa, x2 = 0.4997 | 3.349 ± 0.029
324.96 K, 1999 kPa, x2 = 0.9 | 11.036 ± 0.037
324.96 K, 2003 kPa, x2 = 0.4997 | 6.689 ± 0.03
324.96 K, 2987 kPa, x2 = 0.4997 | 9.973 ± 0.031
324.96 K, 2999 kPa, x2 = 0.9 | 16.7 ± 0.038
324.96 K, 4000 kPa, x2 = 0.9 | 22.453 ± 0.039
324.96 K, 4001 kPa, x2 = 0.4997 | 13.346 ± 0.032
324.96 K, 4999 kPa, x2 = 0.9 | 28.286 ± 0.04
324.96 K, 5001 kPa, x2 = 0.4997 | 16.663 ± 0.033
324.96 K, 6000 kPa, x2 = 0.9 | 34.198 ± 0.041
324.96 K, 6001 kPa, x2 = 0.4997 | 19.966 ± 0.035
324.96 K, 6999 kPa, x2 = 0.9 | 40.162 ± 0.042
324.96 K, 7000 kPa, x2 = 0.4997 | 23.25 ± 0.037
324.96 K, 8002 kPa, x2 = 0.4997 | 26.528 ± 0.039
324.96 K, 8004 kPa, x2 = 0.9 | 46.209 ± 0.042
324.96 K, 8999 kPa, x2 = 0.4997 | 29.768 ± 0.042
324.96 K, 9000 kPa, x2 = 0.9 | 52.245 ± 0.043
324.96 K, 9001 kPa, x2 = 0.9499 | 55.531 ± 0.045
324.96 K, 9926 kPa, x2 = 0.4997 | 32.763 ± 0.045
